From patent US10626349B2, “Cleavable surfactants” (PROMEGA CORPORATION, priority 2007, dated 2020)

Columns and labels:
[1] = target: T1, Myoglobin from horse heart digested with trypsin (Equus caballus, UniProt P68082); experiment: Myoglobin/Trypsin digest, HPLC peak area versus RapiGest control; assay type: biochemical; conditions: 0.01% surfactant, trypsin 50:1, 20 minutes at 37° C.; ratio to RapiGest control, >1 = more digestion
T1 construct: Myoglobin from horse heart; from tissue; host or cells: horse heart
Experimental: Myoglobin from horse heart (typically 25 μs) was digested with trypsin (Promega) at a 50:1 ratio in a volume of 125 μL (typical) of 50 mM Ammonium bicarbonate for 20 minutes at 37° C. with 0.01% RapiGest™ surfactant or 0.01% of the indicated compound of the invention (upper and lower chromatograms, respectively). TFA was added to 0.5-2% and the mixtures were incubated at 37° C. or 65° C. for 20 or 30 minutes. Degraded surfactant was removed by centrifugation at 14,000×g for 5 minutes. HPLC analysis was performed on a 25-50 μL reaction sample using an HP1050 LC system with an Agilent Sorbax SB-C18 column (3.0×100 mm, 3.5 micron) and a gradient of 0.1% TFA (97.5% initial) and Acetonitrile, 0.01% TFA (55% final condition followed by a 100% wash step) and a flow rate of 0.75 mL/min. Peptides were detected at 214 and 280 nm.
(§1) For each compound numbered below in Example 12, the rate of enhanced digestion was determined from the ratio of the surfactant peak area (surfactant # Pk. Area) to the Rapigest™ surfactant peak area (RG Pk area). Peak area was determined as the sum of all peaks integrated from 8-22 minutes.

[2] = target: T2, Bacteriorhodopsin digested with chymotrypsin (Halobacterium salinarum, UniProt P02945); experiment: Bacteriorhodopsin/Chymotrypsin digest, HPLC peak area versus RapiGest control; assay type: biochemical; conditions: 0.025% surfactant
T2 sequence (P02945 14-261 limits assumed): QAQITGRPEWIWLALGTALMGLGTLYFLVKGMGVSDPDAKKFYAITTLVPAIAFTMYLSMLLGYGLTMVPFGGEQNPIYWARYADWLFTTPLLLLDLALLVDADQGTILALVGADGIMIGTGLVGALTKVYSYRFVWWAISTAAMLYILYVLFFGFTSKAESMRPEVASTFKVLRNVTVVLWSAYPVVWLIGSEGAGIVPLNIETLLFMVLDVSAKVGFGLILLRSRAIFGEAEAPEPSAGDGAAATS
Experimental: Bacteriorhodopsin (25 μs) was heated with 0.025% Rapigest™ surfactant or the indicated compound of the invention for 5 minutes at 95° C., then digested with chymotrypsin (Sigma) at a 10:1 ratio in 125 μL 50 mM Ammonium bicarbonate for 1 hour at 37° C. After one hour TFA was added to 0.5-2% and the mixtures were incubated at 37° C. or 65° C. for 20 or 30 minutes. Degraded surfactant was removed by centrifugation at 14,000×g for 5 minutes. An aliquot of 50-100 μL of digested protein was analyzed by HPLC as described above.
Compound 3211, 3212, 3224 and Rapigest™ surfactant control for FIG. 13C reactions: Bacteriorhodopsin (25 μs) was solubilized with 0.025% compound of interest for 1-2 minutes at room temperature, then digested with chymotrypsin (Sigma) at a 10:1 ratio in 125 μL 50 mM Ammonium bicarbonate for 1 hour at 37° C. After one hour TFA was added to 0.5-2% and the mixtures were incubated at 37° C. or 65° C. for 20 or 30 minutes. Degraded surfactant was removed by centrifugation at 14,000×g for 5 minutes. An aliquot of 50-100 μL of digested protein was analyzed by HPLC as described above.
as §1

[3] = Solubility of the surfactant
[4] = Acid and thermal degradation of the surfactant; conditions: for acid-lability (in words): 0.5% TFA at 37° C. where stated (3237: 30 minutes), 3271 by TLC analysis; for thermolability (in words): 3266: 5 minutes at 95° C.
[5] = Hydrolytic stability in 50 mM ammonium bicarbonate (reverse-phase HPLC); assay type: physicochemical
Experimental: Hydrolytic stability was measured by monitoring the change in retention time of the intact surfactant by reverse-phase HPLC. The ½-life is defined as the time required to reach 50% degradation.

[6] = BR heated (boiled) with surfactant 5 minutes at 95° C., chymotrypsin 10:1, 1 hour at 37° C., ratio to RapiGest control
[7] = 0.01% solution, 37° C. where stated
[8] = surfactant conc. 0.0025% in 50 mM ammonium bicarbonate
[9] = surfactant conc. 0.025% in 50 mM ammonium bicarbonate

T1 sequence (P68082 2-154 limits assumed): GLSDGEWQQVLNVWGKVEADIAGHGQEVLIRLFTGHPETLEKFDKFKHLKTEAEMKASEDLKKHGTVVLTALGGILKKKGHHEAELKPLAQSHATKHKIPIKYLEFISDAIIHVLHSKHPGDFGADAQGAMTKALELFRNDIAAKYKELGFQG

With `CCCCCCCCCCC(OC(=O)NCCCS(=O)(=O)O)c1ccccc1OC` (centres unmarked) [Compound 3237] the “surfactant Pk area/RG Pk area, Myoglobin/Trypsin digest” value [1] was 1.4, the “surfactant Pk area/RG Pk area, Bacteriorhodopsin/Chymotrypsin digest” value [2, 6] was 1 and the “solubility in aqueous solutions (concentration dissolved to)” value (“solubility … (concentration dissolved to)” below) ([3]; aqueous solution) was 0.5%. For the same molecule, the “acid-lability (in words)” value [4] was “Moderate degradation was observed”.

With `CCCCCCCC(C)(C)OC(=O)NCC(O)CS(=O)(=O)O` (centres unmarked) [Compound 3204] the “surfactant Pk area/RG Pk area, Myoglobin/Trypsin digest” value [1] was 0.87, the “surfactant Pk area/RG Pk area, Bacteriorhodopsin/Chymotrypsin digest” value [2, 6] was 0.55 and the “solubility … (concentration dissolved to)” value ([3]; aqueous solution) was 0.5%. For the same molecule, the “degradation rate (grade in words)” value [4] was “moderate”.

In the case of `CCCCCCCCCCCC(C)(C)OC(=O)NCC(O)CS(=O)(=O)[O-].[Na+]` (centres unmarked) [Compound 3192], the “surfactant Pk area/RG Pk area, Myoglobin/Trypsin digest” value [1] is reported as 1.3, the “surfactant Pk area/RG Pk area, Bacteriorhodopsin/Chymotrypsin digest” value [2, 6] is reported as 1.1 and the “solubility … (concentration dissolved to)” value ([3]; aqueous solution) is reported as 0.5%. The “degradation of 0.01% solution (in words)” value [4, 7] was “degraded only after overnight incubation”.

In the case of `CCCCCCCCCCCC(C)(C)OC(=O)SCCS(=O)(=O)O` [Compound 3189], the “surfactant Pk area/RG Pk area, Myoglobin/Trypsin digest” value [1] is reported as 1.1, the “surfactant Pk area/RG Pk area, Bacteriorhodopsin/Chymotrypsin digest” value [2, 6] is reported as 0.6 and the “solubility … (concentration dissolved to)” value ([3]; aqueous solution) is reported as 0.5%. The “degradation of 0.01% solution (in words)” value [4, 7] was “degraded only after overnight incubation”.

For `CCCCCCCCCCCCCCC(OC(=O)NCCCS(=O)(=O)[O-])c1ccc(OC)cc1.[Na+]` (centres unmarked) [Compound 3213], the “surfactant Pk area/RG Pk area, Myoglobin/Trypsin digest” value [1] was 0.8, the “surfactant Pk area/RG Pk area, Bacteriorhodopsin/Chymotrypsin digest” value [2, 6] was 1.3 and the ½-life [5, 8] was 62 h. The ½-life [5, 9] was 128 h and the “solubility … (concentration dissolved to)” value ([3]; aqueous solution) was 0.025%.

In the case of `CCCCCCCCCCCCC(OC(=O)NCCCS(=O)(=O)O)c1ccco1` (centres unmarked) [Compound 3224], the “surfactant Pk area/RG Pk area, Myoglobin/Trypsin digest” value [1] is reported as 1.3, the “surfactant Pk area/RG Pk area, Bacteriorhodopsin/Chymotrypsin digest” value ([2]; BR solubilized at room temperature (not boiled), RapiGest control boiled) is reported as 0.74 and the ½-life [5, 8] is reported as 1.3 h. It also gave a ½-life [5, 9] of 8.3 h, a ½-life ([5]; surfactant conc. 0.10% in 50 mM ammonium bicarbonate) of 23 h and a ½-life ([5]; surfactant conc. 0.25% in 50 mM ammonium bicarbonate) of 22 h. The “solubility after adding ACN” value ([3]; ACN added to 20%) was 2% and the “solubility … (concentration dissolved to)” value ([3]; aqueous solution) was 0.25%.

For `CCCCCCCCCCC1COC(c2cc(OCCCS(=O)(=O)[O-])ccc2[N+](=O)[O-])O1.[Na+]` (centres unmarked) [Compound 3225], the “surfactant Pk area/RG Pk area, Myoglobin/Trypsin digest” value [1] was 1.1, the “surfactant Pk area/RG Pk area, Bacteriorhodopsin/Chymotrypsin digest” value [2, 6] was 0.9 and the “solubilized in DMSO to” value ([3]; 100% DMSO) was 10%. The “solubility in aqueous solutions (in words)” value ([3]; aqueous solution) was “Not soluble in aqueous solutions”, the “acid-lability (in words)” value [4] was “slowly degrades in 0.5% TFA at 37 °C” and the “thermolability (in words)” value [4] was “No thermolability was observed”.

For `CCCCCCCCCCOc1ccc(C(OCCN(CCCCS(=O)(=O)[O-])CCCCS(=O)(=O)[O-])(c2ccccc2)c2ccc(OC)cc2)cc1.[Na+].[Na+]` (centres unmarked) [Compound 3220], the “surfactant Pk area/RG Pk area, Myoglobin/Trypsin digest” value [1] was 0.2, the “surfactant Pk area/RG Pk area, Bacteriorhodopsin/Chymotrypsin digest” value [2, 6] was 0.8 and the “solubility … (concentration dissolved to)” value ([3]; aqueous solution) was 1%. For the same molecule, the “time to degradation in 0.5% TFA” value ([4]; 37° C. where stated, 0.1% solution for 3220 and 3266) was ≤ 15 min and the “thermolability (in words)” value [4] was “moderate thermolability”.

With `CCCCCCCCCOCC(C)(C)OC(=O)NCCCS(=O)(=O)O` [Compound 3205] the “surfactant Pk area/RG Pk area, Myoglobin/Trypsin digest” value [1] was 0.3, the “surfactant Pk area/RG Pk area, Bacteriorhodopsin/Chymotrypsin digest” value [2, 6] was 0.45 and the “solubility … (concentration dissolved to)” value ([3]; aqueous solution) was 0.5%. The “degradation after overnight incubation (in words)” value ([4]; overnight incubation, concentration not given) was “No degradation was observed even after overnight incubation”.

In the case of `CCCCCCCCCCOc1ccc(C(OCCN(CCCCS(=O)(=O)[O-])CCCCS(=O)(=O)[O-])(c2ccccc2)c2ccccc2)cc1.[Na+].[Na+]` [Compound 3215], the “surfactant Pk area/RG Pk area, Myoglobin/Trypsin digest” value [1] is reported as 0.56, the “surfactant Pk area/RG Pk area, Bacteriorhodopsin/Chymotrypsin digest” value [2, 6] is reported as 1.2 and the “solubility … (concentration dissolved to)” value ([3]; aqueous solution) is reported as 1%. For the same molecule, the “time to degradation in 0.5% TFA” value ([4]; 0.1% solution) was 60 min and the “thermolability (in words)” value [4] was “moderate thermolability”.

In the case of `CCCCCCCCCSCC(C)(C)OC(=O)NCCCS(=O)(=O)O` [Compound 3206], the “surfactant Pk area/RG Pk area, Myoglobin/Trypsin digest” value [1] is reported as 0.26, the “surfactant Pk area/RG Pk area, Bacteriorhodopsin/Chymotrypsin digest” value [2, 6] is reported as 0.8 and the “solubility … (concentration dissolved to)” value ([3]; aqueous solution) is reported as 0.5%. For the same molecule, the “degradation rate (grade in words)” value [4] was “moderate”.

For `CCCCCCCCCCC(OC(=O)NCCCS(=O)(=O)O)c1cc(OC)cc(OC)c1` (centres unmarked) [Compound 3236], the “surfactant Pk area/RG Pk area, Myoglobin/Trypsin digest” value [1] was 1.4, the “surfactant Pk area/RG Pk area, Bacteriorhodopsin/Chymotrypsin digest” value [2, 6] was 0.71 and the “solubility … (concentration dissolved to)” value ([3]; aqueous solution) was 1%. For the same molecule, the “degradation by acid (0.5% TFA) or by heat (boiling), in words” value ([4]; 3236: 0.1% solution in 0.5% TFA 30 minutes at 37° C. or 5 minutes of boiling without TFA) was “no degradation was observed”.

With `CCCCCCOc1ccc(C(OCCCS(=O)(=O)[O-])(c2ccccc2)c2ccccc2)cc1.[Na+]` [Compound 3202] the “surfactant Pk area/RG Pk area, Myoglobin/Trypsin digest” value [1] was 1.1, the “surfactant Pk area/RG Pk area, Bacteriorhodopsin/Chymotrypsin digest” value [2, 6] was 0.6 and the “solubility … (concentration dissolved to)” value ([3]; aqueous solution) was ~0.01%. The “time to degradation of 0.01% solution” value [4, 7] was ≤ 30 min.

With `CCCCCCCCCCC1COC(c2cccc(OCCCS(=O)(=O)[O-])c2)O1.[Na+]` (centres unmarked) [Compound 3228] the “surfactant Pk area/RG Pk area, Myoglobin/Trypsin digest” value [1] was 1.4, the “surfactant Pk area/RG Pk area, Bacteriorhodopsin/Chymotrypsin digest” value [2, 6] was 1.2 and the “solubility … (concentration dissolved to)” value ([3]; aqueous solution) was 1%. For the same molecule, the “degradation rate (grade in words)” value [4] was “low”.
